According to patent publication US6075057A, “Inhibition of carbohydrates metabolism by quinone compounds” (priority 1997, dated 2000):

System: β-N-acetylglucosaminidase (EC 3.2.1.30)
Assay: Initial screening assay for enzyme inhibition, β-N-acetylglucosaminidase
Assay type: biochemical, bovine kidney
Details: 2% MeOH
Protocol: Optically pure enantiomers of avarol were synthetically prepared. A survey of potential inhibitory activity by avarol against twelve glycosidases was performed according to general procedures^15 (see experimental section). The enzymes tested and their biological sources are listed in Table 1 along with any pertinent references found for a given enzyme. In order to determine a working range for enzyme and substrate concentrations in which the rate of product formation was linear and steady-state kinetics were applicable, initial rate studies with varying substrate concentrations were performed in the absence of inhibitor. The Michaelis constants (Km 's) and Vmax values for these enzymes were determined from these plots using standard graphical analysis procedures as described in ref. 17 and are summarized in Table 2.
Enzymatic Assays. Piperazine-N,N'-bix-(2-ethanesulfonic acid)(PIPES) buffer, enzymes, and substrates were purchased from Sigma and used as received. Buffer solutions and enzymes (desiccated) were stored at 4° C. p-Nitrophenyl glycoside substrates were stored desiccated at -20° C. Enzyme inhibition assays and initial rate studies were carried out with the appropriate p-nitrophenyl glycoside substrates following the general procedure of Kajimoto et al., J. Am. Chem. Soc. 113:6187 (1991) with the exception that amyloglucosidase (EC 3.2,1.3, Asp. niger) was assayed following the method of Saul et al., Arch. Biochem. Biophys. 221:593 (1983). Assays were performed in a Perkin-Elmer Lambda Array 3840 Spectrophotometer using the built-in drive method (resolution=0.25, average=8) in a quartz cuvette (1 cm pathlength). Background absorption spectra were acquired using millipore filtered water as medium. Steady-state kinetics were maintained by adjusting the amount of enzyme used in each assay so that less than 10% of the substrate was converted to product for the duration of the reaction. Reactions were monitored at 400 nm (the absorbance of the p-nitrophenol product, ε=3204.5 M^-1 cm^-1) for a given amount of time and the initial rates were calculated and expressed as μmols p-nitrophenol formed per unit enzyme per second. Absportion readings for control reactions were corrected for the small baseline absorbance at time zero. Small discrepancies between time zero absorbance readings in a given inhibition assay and a time zero reading in a control assay were used to correct the overall absorbance change calculated in the inhibition assay. […]
Typical assay: A 1.5-mL quartz cuvette was charged with 940 μL of PIPES-NaOAc buffer solution (pH 6.56), 20 μL of inhibitor solution, and 20 μL of enzyme solution. […] The reaction was monitored at 400 nm for 1 min and the absorbance change was used to calculate the initial hydrolysis rate. […]

SMILES	% Enzyme activity relative to control (20 μM inhibitor) [%]	% Enzyme activity relative to control (10 μM inhibitor) [%]
CC1=CCC[C@H]2[C@](C)(Cc3cc(O)ccc3O)[C@@H](C)CC[C@]12C [(+)-avarol, (+)-Avarol]	102	
CC1=CCC[C@@H]2[C@@](C)(Cc3cc(O)ccc3O)[C@H](C)CC[C@@]12C [(-)-avarol]		89
